Experiments:
carragheenin paw edema = carragheenin paw edema test; assay type: in vivo, rat; conditions: rats; for % INHIBITION of edema / EDEMA (results expressed in grams of mercury displaced): 3 h after carragheenin
Protocol: A. Winter, et al., Proc. Soc. Exp. Biol., lll, 544 (1962). […] A. Winter in "Non-Steroidal Anti-inflammatory Drugs", S. Garattine and M. N. G. Dukes, Eds., Excerpta Medica International Congress, Ser. No. 82, 1965, p. 190.
More particularly exemplified a substantial effect for γ-oxo-2-dibenzofuranbutyric acid is demonstrable at oral doses of 200 mg/kg or less in this paw edema test. In this test rats are treated with the test compound one hour before a 1% suspension of carragheenin in saline is injected into the subplantar area of the hind paw of the rat. Results are obtained by measuring the increase in paw volume caused by the resulting edema three hours later by plethysmography in mercury and expressing values as grams of mercury displaced. Control animals receive the vehicle only. The results are expressed as percent inhibition in edematous swelling calculated as [formula] where Δ control is the increase in volume measured in untreated controls and Δ treated is the increase in volume found in the treated animals.
The following table lists the results obtained for both γ-oxo-2-dibenzofuranbutyric acid (l) and its isomer ll.

inflammatory conditions = assay: antiinflammatory activity (pharmacologic testing); assay type: in vivo; conditions: for antiinflammatory properties / activity: in vivo
solubility in water = assay type: physicochemical
warm-blooded animals = assay: toxicity / tolerance (acute toxicity tests and prolonged administration); conditions: in vivo
[1] = analgesic activity (standard pharmacologic test); conditions: in vivo
Source text: (§1) The useful antiinflammatory, analgesic and antipyretic activities of the product of this invention is demonstrable in standard pharmacologic tests, for example, the test described by R. A. Turner in "Screening Method in Pharmacology", Academic Press, New York and London, 1965, pp. 152-163, pp. 100-117 and pp. 298-299, respectively.

[2] = antipyretic activity (standard pharmacologic test); conditions: in vivo
Source text: as §1

gastrointestinal ulcers = assay: ulcerogenic activity in a modification of a known method; assay type: in vivo; conditions: therapeutic dose levels

O=C(O)CCC(=O)c1ccc2oc3ccccc3c2c1 [γ-oxo-2-dibenzofuranbutyric acid]
% INHIBITION of edema (carragheenin paw edema; Experiment A, 50 mg/kg, oral): 37%
EDEMA (results expressed in grams of mercury displaced) (carragheenin paw edema; Experiment A, 50 mg/kg, oral): 7.7 ± 0.88 grams of mercury displaced
% INHIBITION of edema (carragheenin paw edema; Experiment A, 100 mg/kg, oral): 54%
EDEMA (results expressed in grams of mercury displaced) (carragheenin paw edema; Experiment A, 100 mg/kg, oral): 5.7 ± 0.42 grams of mercury displaced
% INHIBITION of edema (carragheenin paw edema; Experiment A, 200 mg/kg, oral): 78%
EDEMA (results expressed in grams of mercury displaced) (carragheenin paw edema; Experiment A, 200 mg/kg, oral): 2.7 ± 0.36 grams of mercury displaced
% INHIBITION of edema (carragheenin paw edema; Experiment C, 100 mg/kg): 60%
EDEMA (results expressed in grams of mercury displaced) (carragheenin paw edema; Experiment C, 100 mg/kg): 4.8 ± 0.46 grams of mercury displaced
minimal effective dose (carragheenin paw edema; Rattus norvegicus, oral, read-out: oral dose at which a substantial effect is demonstrable): ≤ 200 mg/kg
activity compared with isomer ll (Student's t test) (carragheenin paw edema; paw edema test): significantly more active than the isomer ll
antiinflammatory activity compared with isomer ll (inflammatory conditions; acid l versus isomer ll): somewhat more active
onset of action compared with isomer ll (inflammatory conditions; acid l versus isomer ll): quicker onset of action
antiinflammatory properties / activity (inflammatory conditions): important antiinflammatory properties
antiinflammatory properties / activity (inflammatory conditions; listed as acid l): have antiinflammatory activity
solubility in water (solubility in water): only limited solubility in water
side effects (warm-blooded animals): lack of side effects
therapeutic index (warm-blooded animals): highly favorable therapeutic index
tolerance (warm-blooded animals): exceptionally well tolerated
toxicity (warm-blooded animals): low order of toxicity
analgesic activity [1]: possesses analgesic and antipyretic activity
antipyretic activity [2]: possesses analgesic and antipyretic activity
formation of gastrointestinal ulcers (gastrointestinal ulcers): does not cause formation of gastrointestinal ulcers

O=C(O)CCC(=O)c1ccc2c(c1)oc1ccccc12 [γ-oxo-3-dibenzofuranbutyric acid]
% INHIBITION of edema (carragheenin paw edema; Experiment B, 100 mg/kg): 5%
EDEMA (results expressed in grams of mercury displaced) (carragheenin paw edema; Experiment B, 100 mg/kg): 13.6 ± 1.38 grams of mercury displaced
% INHIBITION of edema (carragheenin paw edema; Experiment B, 200 mg/kg): 34%
EDEMA (results expressed in grams of mercury displaced) (carragheenin paw edema; Experiment B, 200 mg/kg): 9.5 ± 1.11 grams of mercury displaced
% INHIBITION of edema (carragheenin paw edema; Experiment B, 400 mg/kg): 28%
EDEMA (results expressed in grams of mercury displaced) (carragheenin paw edema; Experiment B, 400 mg/kg): 10.3 ± 1.05 grams of mercury displaced
% INHIBITION of edema (carragheenin paw edema; Experiment C, 100 mg/kg): 18%
EDEMA (results expressed in grams of mercury displaced) (carragheenin paw edema; Experiment C, 100 mg/kg): 9.9 ± 0.67 grams of mercury displaced
antiinflammatory properties / activity (inflammatory conditions): have antiinflammatory activity
